Measured values published in ChEMBL document CHEMBL1201862, “PubChem BioAssay data set” (2004).
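Where inhibition never reached the appropriate level, the endpoint shown equals the highest concentration tested. Otherwise, values were interpolated linearly from a five-concentration, 48-hour dose response in 96-well plates. Abbreviation: GI50, concentration required for 50% inhibition of growth.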 Activity calls are given as the source filed them. Rule as the data show it: active = GI50 up to about 1.1 µM and inactive = higher.

Key:
Experiment in all cases: growth of human tumour cells (NCI), 48 h
ACHN = tested on: ACHN
CCRF-CEM = tested on: CCRF-CEM
HOP-62 = tested on: HOP-62
M14 = tested on: M14
OVCAR-3 = tested on: OVCAR-3
OVCAR-4 = tested on: OVCAR-4
OVCAR-8 = tested on: OVCAR-8
SK-MEL-5 = tested on: SK-MEL-5
SK-OV-3 = tested on: SK-OV-3
SN12C = tested on: SN12C
SNB-78 = tested on: SNB-78
SR = tested on: SR
SW-620 = tested on: SW-620
TK-10 = tested on: TK-10
UACC-257 = tested on: UACC-257
UACC-62 = tested on: UACC-62
UO-31 = tested on: UO-31
Hs-578T = tested on: Hs-578T
MDA-N = tested on: MDA-N
PC-3 = tested on: PC-3

Row | SMILES | GI50 (ACHN) | GI50 (CCRF-CEM) | GI50 (HOP-62) | GI50 (M14) | GI50 (OVCAR-3) | GI50 (OVCAR-4) | GI50 (OVCAR-8) | GI50 (SK-MEL-5) | GI50 (SK-OV-3) | GI50 (SN12C) | GI50 (SNB-78) | GI50 (SR) | GI50 (SW-620) | GI50 (TK-10) | GI50 (UACC-257) | GI50 (UACC-62) | GI50 (UO-31) | GI50 (Hs-578T) | GI50 (MDA-N) | GI50 (PC-3)
1 | CCOC(=N)CC(=O)Nc1ccccc1CC | > 100 µM (inactive) | > 100 µM (inactive) | > 100 µM (inactive) | > 100 µM (inactive) | > 100 µM (inactive) | > 100 µM (inactive) | > 100 µM (inactive) | > 100 µM (inactive) | > 100 µM (inactive) | > 100 µM (inactive) | > 100 µM (inactive) | > 100 µM (inactive) | > 100 µM (inactive) | > 100 µM (inactive) | > 100 µM (inactive) | > 100 µM (inactive) | > 100 µM (inactive) | – | – | –
2 | CC1=C(C(=O)Nc2ccc([N+](=O)[O-])cc2)C(c2ccc3c(c2)OCO3)C(C(=O)Nc2ccc([N+](=O)[O-])cc2)=C(C)N1 | 10.1 µM (inactive) | – | 37.6 µM (inactive) | 6.78 µM (inactive) | 6.43 µM (inactive) | 10.6 µM (inactive) | 3.16 µM (inactive) | – | > 100 µM (inactive) | 38.3 µM (inactive) | 68.4 µM (inactive) | 1.98 µM (inactive) | 51.9 µM (inactive) | – | 5.6 µM (inactive) | 5.21 µM (inactive) | 6.4 µM (inactive) | – | – | –
3 | CC(Oc1ccc2cc(C(=O)c3ccccc3)c(=O)oc2c1)C(=O)O (configuration not stated) | > 100 µM (inactive) | > 100 µM (inactive) | > 100 µM (inactive) | > 100 µM (inactive) | > 100 µM (inactive) | > 100 µM (inactive) | > 100 µM (inactive) | > 100 µM (inactive) | > 100 µM (inactive) | > 100 µM (inactive) | > 100 µM (inactive) | > 100 µM (inactive) | > 100 µM (inactive) | > 100 µM (inactive) | > 100 µM (inactive) | > 100 µM (inactive) | > 100 µM (inactive) | – | – | –
4 | C[C@@H]1C(=O)CC2C(C)(C)CCC[C@]2(C)[C@@]12CC[C@]1(C=COC1)O2 (some centres not stated) | 32.5 µM (inactive) | 23.4 µM (inactive) | 50.8 µM (inactive) | 29.4 µM (inactive) | 36.4 µM (inactive) | 43.8 µM (inactive) | 27.9 µM (inactive) | – | 27.5 µM (inactive) | 18.7 µM (inactive) | 41.2 µM (inactive) | 22 µM (inactive) | 50.8 µM (inactive) | – | – | 35.4 µM (inactive) | 29.9 µM (inactive) | – | – | –
5 | COC(=O)C1CC/C(=N/c2ccc(C)cc2C)N1 (configuration not stated) | > 100 µM (inactive) | > 100 µM (inactive) | > 100 µM (inactive) | > 100 µM (inactive) | > 100 µM (inactive) | > 100 µM (inactive) | > 100 µM (inactive) | > 100 µM (inactive) | > 100 µM (inactive) | > 100 µM (inactive) | > 100 µM (inactive) | – | > 100 µM (inactive) | > 100 µM (inactive) | > 100 µM (inactive) | > 100 µM (inactive) | > 100 µM (inactive) | – | – | –
6 | CN1C(=O)C(=O)N2c3ccc(Cl)cc3C3(c4ccccc4)N=CC12O3 (configuration not stated) | 4.7 µM (inactive) | 3.03 µM (inactive) | 15 µM (inactive) | 3.21 µM (inactive) | 4.38 µM (inactive) | 2.11 µM (inactive) | 3.13 µM (inactive) | 5.52 µM (inactive) | 10.1 µM (inactive) | 3.53 µM (inactive) | 6.7 µM (inactive) | – | 3.79 µM (inactive) | 5.45 µM (inactive) | 5.79 µM (inactive) | 3.94 µM (inactive) | 4.1 µM (inactive) | – | – | –
7 | COC(=O)c1c[nH]cc1CCc1c[nH]cc1C(=O)OC | > 100 µM (inactive) | > 100 µM (inactive) | > 100 µM (inactive) | – | > 100 µM (inactive) | > 100 µM (inactive) | > 100 µM (inactive) | – | > 100 µM (inactive) | > 100 µM (inactive) | > 100 µM (inactive) | > 100 µM (inactive) | > 100 µM (inactive) | > 100 µM (inactive) | > 100 µM (inactive) | – | – | – | – | –
8 | Cc1ccc(NC(=O)CCC(=O)C(C#N)c2ccc(Cl)cc2)cc1C (configuration not stated) | > 100 µM (inactive) | > 100 µM (inactive) | > 100 µM (inactive) | > 100 µM (inactive) | > 100 µM (inactive) | > 100 µM (inactive) | > 100 µM (inactive) | > 100 µM (inactive) | – | > 100 µM (inactive) | > 100 µM (inactive) | – | > 100 µM (inactive) | > 100 µM (inactive) | > 100 µM (inactive) | > 100 µM (inactive) | > 100 µM (inactive) | – | – | –
9 | O=c1[nH]c(-c2ccccc2)nc2cc(Cl)ccc12 | > 100 µM (inactive) | > 100 µM (inactive) | > 100 µM (inactive) | > 100 µM (inactive) | > 100 µM (inactive) | > 100 µM (inactive) | > 100 µM (inactive) | > 100 µM (inactive) | > 100 µM (inactive) | – | > 100 µM (inactive) | – | > 100 µM (inactive) | > 100 µM (inactive) | > 100 µM (inactive) | > 100 µM (inactive) | > 100 µM (inactive) | – | – | –
10 | c1ccc(Nc2nnc(CSc3nc(-c4ccccc4)c(-c4ccccc4)[nH]3)s2)cc1 | 26.3 µM (inactive) | 15.5 µM (inactive) | 21.1 µM (inactive) | 14.7 µM (inactive) | 10.5 µM (inactive) | 27 µM (inactive) | 23 µM (inactive) | 15.2 µM (inactive) | 22.8 µM (inactive) | 17.1 µM (inactive) | 30.1 µM (inactive) | 20.6 µM (inactive) | – | 26.1 µM (inactive) | 20.5 µM (inactive) | – | 13.3 µM (inactive) | – | – | –
11 | COC(=O)c1c(-c2cc(OC)c(OC)c(OC)c2)oc2ccccc2c1=O | > 100 µM (inactive) | 36.7 µM (inactive) | > 100 µM (inactive) | > 100 µM (inactive) | 75.9 µM (inactive) | 68.4 µM (inactive) | > 100 µM (inactive) | 59.7 µM (inactive) | > 100 µM (inactive) | > 100 µM (inactive) | > 100 µM (inactive) | – | > 100 µM (inactive) | 42.6 µM (inactive) | > 100 µM (inactive) | 68.4 µM (inactive) | 66.4 µM (inactive) | – | – | –
12 | CC1CC(C)C(C(O)CC2CC(=O)N(c3ccccc3)C(=O)C2)C(O)C1 (configuration not stated) | > 100 µM (inactive) | > 100 µM (inactive) | > 100 µM (inactive) | > 100 µM (inactive) | > 100 µM (inactive) | > 100 µM (inactive) | > 100 µM (inactive) | – | > 100 µM (inactive) | > 100 µM (inactive) | > 100 µM (inactive) | > 100 µM (inactive) | > 100 µM (inactive) | > 100 µM (inactive) | > 100 µM (inactive) | > 100 µM (inactive) | > 100 µM (inactive) | – | – | –
13 | c1cc(C2N3CCCN2CC3)ccn1 (configuration not stated) | > 100 µM (inactive) | 33.4 µM (inactive) | > 100 µM (inactive) | 61.1 µM (inactive) | 29.4 µM (inactive) | 86.7 µM (inactive) | 53.8 µM (inactive) | 48.2 µM (inactive) | > 100 µM (inactive) | 79.8 µM (inactive) | – | 49.9 µM (inactive) | 41.8 µM (inactive) | > 100 µM (inactive) | > 100 µM (inactive) | > 100 µM (inactive) | > 100 µM (inactive) | 22.8 µM (inactive) | 35.1 µM (inactive) | > 100 µM (inactive)
14 | CC(C(=O)n1nnc2ccccc21)N(c1ccccc1)c1ccccc1 (configuration not stated) | > 100 µM (inactive) | 83.4 µM (inactive) | > 100 µM (inactive) | > 100 µM (inactive) | 66.7 µM (inactive) | – | > 100 µM (inactive) | 42.9 µM (inactive) | > 100 µM (inactive) | > 100 µM (inactive) | > 100 µM (inactive) | 78.3 µM (inactive) | > 100 µM (inactive) | > 100 µM (inactive) | 72.4 µM (inactive) | > 100 µM (inactive) | > 100 µM (inactive) | – | – | –
15 | CC[C@@H]1C[C@@H]2CN3CCc4c([nH]c5ccc(OC)cc45)C(COC(=O)c4ccc(OC)c(OC)c4)(C2)C13 | 24.4 µM (inactive) | 14.3 µM (inactive) | 22.9 µM (inactive) | 14.9 µM (inactive) | 16.1 µM (inactive) | 26.4 µM (inactive) | 31.6 µM (inactive) | – | – | 17.4 µM (inactive) | 19.6 µM (inactive) | 13.6 µM (inactive) | 14.6 µM (inactive) | 32.2 µM (inactive) | 18.3 µM (inactive) | 13.7 µM (inactive) | 16.8 µM (inactive) | – | – | –
16 | COCOC1/C=C/CCCC#C[C@H](C)C(=O)CC1 (some centres not stated) | 14.2 µM (inactive) | 3.13 µM (inactive) | 19.5 µM (inactive) | 8.15 µM (inactive) | 6.12 µM (inactive) | 7.83 µM (inactive) | 14.5 µM (inactive) | 8.77 µM (inactive) | 15.8 µM (inactive) | 11.2 µM (inactive) | – | 3.46 µM (inactive) | 2.71 µM (inactive) | 15.2 µM (inactive) | 6.05 µM (inactive) | 10 µM (inactive) | 14.8 µM (inactive) | 15.5 µM (inactive) | 11.4 µM (inactive) | 8.69 µM (inactive)
17 | O=C(c1cccc(F)c1F)N1CCc2c([nH]c3ccccc23)C1c1ccc2c(c1)OCO2 (configuration not stated) | 18.8 µM (inactive) | 5.83 µM (inactive) | 0.337 µM (active) | 3.85 µM (inactive) | 1.64 µM (inactive) | 11.1 µM (inactive) | 31.3 µM (inactive) | 3.63 µM (inactive) | 3.61 µM (inactive) | 14.3 µM (inactive) | – | 3.61 µM (inactive) | 9.71 µM (inactive) | 22.5 µM (inactive) | 11.2 µM (inactive) | 5.24 µM (inactive) | 10.9 µM (inactive) | 23.8 µM (inactive) | 2.42 µM (inactive) | 2.97 µM (inactive)
